Reference: the supplement of paper PMC11665569
± gives the standard deviation of the averaged measurements.

Tests used:
KYSE410 = assay: relative viability (fraction of vehicle control); higher = more viable / less inhibited; conditions: treatment time: 5 days
Method: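 CCK-8 viability of KYSE410 cells transfected with control, YAP/TAZ or TEAD1-4 siRNAs and treated with KRAS G12C inhibitors for 5 days. Values are normalised to vehicle control.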

H358 = assay: as above; conditions: treatment time: 5 days
Method: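 CCK-8 viability of H358 cells with empty vector or constitutively active YAP S127A, treated with KRAS G12C inhibitors for 5 days. Absorbance at 450 nm normalised to vehicle control.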

C=C(F)C(=O)N1CCN(c2nc(OC[C@@H]3CCCN3C)nc3c2CCN(c2cccc4cccc(Cl)c24)C3)C[C@@H]1CC#N [MRTX849]
Conditions | relative viability
H358, log10 concentration (uM): 0, ectopic expression: YAP S127A | 0.6 ± 0.033
H358, log10 concentration (uM): 0, ectopic expression: empty vector (YAP experiment) | 0.139 ± 0.025
H358, log10 concentration (uM): 0.69897, ectopic expression: YAP S127A | 0.144 ± 0.069
H358, log10 concentration (uM): 0.69897, ectopic expression: empty vector (YAP experiment) | 0.0333 ± 0.033
H358, log10 concentration (uM): -0.30103, ectopic expression: YAP S127A | 0.811 ± 0.22
H358, log10 concentration (uM): -0.30103, ectopic expression: empty vector (YAP experiment) | 0.217 ± 0.076
H358, log10 concentration (uM): -1, ectopic expression: YAP S127A | 0.733 ± 0.13
H358, log10 concentration (uM): -1, ectopic expression: empty vector (YAP experiment) | 0.328 ± 0.1
H358, log10 concentration (uM): -1.30103, ectopic expression: YAP S127A | 0.811 ± 0.069
H358, log10 concentration (uM): -1.30103, ectopic expression: empty vector (YAP experiment) | 0.361 ± 0.0096
H358, log10 concentration (uM): -2, ectopic expression: YAP S127A | 1.02 ± 0.16
H358, log10 concentration (uM): -2, ectopic expression: empty vector (YAP experiment) | 0.678 ± 0.098
H358, log10 concentration (uM): -2.30103, ectopic expression: YAP S127A | 1.1 ± 0.14
H358, log10 concentration (uM): -2.30103, ectopic expression: empty vector (YAP experiment) | 0.783 ± 0.044
H358, log10 concentration (uM): -3, ectopic expression: YAP S127A | 1.27 ± 0.033
H358, log10 concentration (uM): -3, ectopic expression: empty vector (YAP experiment) | 0.828 ± 0.035
H358, log10 concentration (uM): -4, ectopic expression: YAP S127A | 1.12 ± 0.038
H358, log10 concentration (uM): -4, ectopic expression: empty vector (YAP experiment) | 0.778 ± 0.035
KYSE410, log10 concentration (uM): 0, siRNA knockdown: YAP/TAZ siRNA 1 | 0.273 ± 0.051
KYSE410, log10 concentration (uM): 0, siRNA knockdown: YAP/TAZ siRNA 2 | 0.298 ± 0.012
KYSE410, log10 concentration (uM): 0, siRNA knockdown: negative control siRNA | 0.646 ± 0.03
KYSE410, log10 concentration (uM): 0.69897, siRNA knockdown: TEAD1-4 siRNA 1 | 0.0217 ± 0.003
KYSE410, log10 concentration (uM): 0.69897, siRNA knockdown: TEAD1-4 siRNA 2 | 0.0146 ± 0.0016
KYSE410, log10 concentration (uM): 0.69897, siRNA knockdown: YAP/TAZ siRNA 1 | 0.00876 ± 0.00077
KYSE410, log10 concentration (uM): 0.69897, siRNA knockdown: YAP/TAZ siRNA 2 | 0.00963 ± 0.0013
KYSE410, log10 concentration (uM): 0.69897, siRNA knockdown: negative control siRNA | 0.0324 ± 0.0016
KYSE410, log10 concentration (uM): -0.30103, siRNA knockdown: TEAD1-4 siRNA 1 | 0.419 ± 0.11
KYSE410, log10 concentration (uM): -0.30103, siRNA knockdown: TEAD1-4 siRNA 2 | 0.317 ± 0.025
KYSE410, log10 concentration (uM): -0.30103, siRNA knockdown: YAP/TAZ siRNA 1 | 0.381 ± 0.041
KYSE410, log10 concentration (uM): -0.30103, siRNA knockdown: YAP/TAZ siRNA 2 | 0.395 ± 0.017
KYSE410, log10 concentration (uM): -0.30103, siRNA knockdown: negative control siRNA | 0.715 ± 0.022
KYSE410, log10 concentration (uM): -1, siRNA knockdown: TEAD1-4 siRNA 1 | 0.582 ± 0.056
KYSE410, log10 concentration (uM): -1, siRNA knockdown: TEAD1-4 siRNA 2 | 0.45 ± 0.055
KYSE410, log10 concentration (uM): -1, siRNA knockdown: YAP/TAZ siRNA 1 | 0.481 ± 0.048
KYSE410, log10 concentration (uM): -1, siRNA knockdown: YAP/TAZ siRNA 2 | 0.445 ± 0.044
KYSE410, log10 concentration (uM): -1, siRNA knockdown: negative control siRNA | 0.788 ± 0.044
KYSE410, log10 concentration (uM): -1.30103, siRNA knockdown: TEAD1-4 siRNA 1 | 0.704 ± 0.037
KYSE410, log10 concentration (uM): -1.30103, siRNA knockdown: TEAD1-4 siRNA 2 | 0.572 ± 0.083
KYSE410, log10 concentration (uM): -1.30103, siRNA knockdown: YAP/TAZ siRNA 1 | 0.559 ± 0.05
KYSE410, log10 concentration (uM): -1.30103, siRNA knockdown: YAP/TAZ siRNA 2 | 0.525 ± 0.033
KYSE410, log10 concentration (uM): -1.30103, siRNA knockdown: negative control siRNA | 0.814 ± 0.0083
KYSE410, log10 concentration (uM): -2, siRNA knockdown: TEAD1-4 siRNA 1 | 0.871 ± 0.1
KYSE410, log10 concentration (uM): -2, siRNA knockdown: TEAD1-4 siRNA 2 | 0.648 ± 0.099
KYSE410, log10 concentration (uM): -2, siRNA knockdown: YAP/TAZ siRNA 1 | 0.767 ± 0.057
KYSE410, log10 concentration (uM): -2, siRNA knockdown: YAP/TAZ siRNA 2 | 0.735 ± 0.031
KYSE410, log10 concentration (uM): -2, siRNA knockdown: negative control siRNA | 0.942 ± 0.015
KYSE410, log10 concentration (uM): -2.30103, siRNA knockdown: TEAD1-4 siRNA 1 | 0.873 ± 0.16
KYSE410, log10 concentration (uM): -2.30103, siRNA knockdown: TEAD1-4 siRNA 2 | 0.793 ± 0.078
KYSE410, log10 concentration (uM): -2.30103, siRNA knockdown: YAP/TAZ siRNA 1 | 0.855 ± 0.038
KYSE410, log10 concentration (uM): -2.30103, siRNA knockdown: YAP/TAZ siRNA 2 | 0.868 ± 0.036
KYSE410, log10 concentration (uM): -2.30103, siRNA knockdown: negative control siRNA | 0.937 ± 0.026
KYSE410, log10 concentration (uM): -3, siRNA knockdown: TEAD1-4 siRNA 1 | 0.888 ± 0.036
KYSE410, log10 concentration (uM): -3, siRNA knockdown: TEAD1-4 siRNA 2 | 0.869 ± 0.063
KYSE410, log10 concentration (uM): -3, siRNA knockdown: YAP/TAZ siRNA 1 | 0.936 ± 0.056
KYSE410, log10 concentration (uM): -3, siRNA knockdown: YAP/TAZ siRNA 2 | 0.915 ± 0.029
KYSE410, log10 concentration (uM): -3, siRNA knockdown: negative control siRNA | 0.981 ± 0.023
KYSE410, log10 concentration (uM): -4, siRNA knockdown: TEAD1-4 siRNA 1 | 1.04 ± 0.14
KYSE410, log10 concentration (uM): -4, siRNA knockdown: TEAD1-4 siRNA 2 | 0.951 ± 0.073
KYSE410, log10 concentration (uM): -4, siRNA knockdown: YAP/TAZ siRNA 1 | 0.946 ± 0.027
KYSE410, log10 concentration (uM): -4, siRNA knockdown: YAP/TAZ siRNA 2 | 1.01 ± 0.014
KYSE410, log10 concentration (uM): -4, siRNA knockdown: negative control siRNA | 0.987 ± 0.021
